Reference: patent US8354106B2, “Antibodies against HMGB1 and fragments thereof” (The Feinstein Institute for Medical Research, priority 2005, dated 2013)
Where no end group is shown, it is not given here. The star is where a group is joined. Biotin = O=C1N[C@H]2[C@H](CS[C@H]2CCCCC(=O)*)N1

Key:
[1] = system: human immature monocyte-derived dendritic cells (DCs); assay: Cytokine/chemokine secretion by human immature monocyte-derived dendritic cells (ELISA); format: cell-based; parameters: key to TNFα secretion / IL-18 secretion / IL-8 secretion / IL-10 secretion / IL-6 secretion / IL-12 secretion: “+” indicates an increase; “−” indicates no change relative to untreated cells (medium); conditions: for secretion of IL-6 by DCs / cytokine secretion by human DCs / secretion of IL-12 (p70) / secretion of TNF-α / secretion of IL-18 / secretion of IL-8: human DCs; for secretion of IL-6 by DCs: FIGS. 1A, 1B; for secretion of IL-6 by DCs / IL-6 secretion / IL-8 secretion / IL-10 secretion / IL-12 secretion / IL-18 secretion / TNFα secretion / secretion of IL-12 (p70) / secretion of TNF-α / secretion of IL-18 / secretion of IL-8: peptides 200 μg/ml; for secretion of IL-6 by DCs / secretion of IL-12 (p70) / secretion of TNF-α / secretion of IL-18 / secretion of IL-8: 48 h; for IL-6 secretion / IL-8 secretion / IL-10 secretion / IL-12 secretion / IL-18 secretion / TNFα secretion: HUMAN DC, ELISA 48 h after exposure, relative to untreated cells; for IL-6 secretion / IL-8 secretion / IL-10 secretion / IL-12 secretion / IL-18 secretion / TNFα secretion / secretion of IL-18 / secretion of IL-8: HMGB1-Bx 50 μg/ml; for secretion of IL-12 (p70): FIG. 1C; for secretion of TNF-α: FIG. 1D; for secretion of IL-18: FIG. 1E; for secretion of IL-8: FIG. 1F
Procedure: Peripheral blood mononuclear cells (PBMCs) were isolated from the blood of normal volunteers (Long Island Blood Services, Melville, N.Y.) over a Ficoll-Hypaque (Amersham Biosciences, Uppsala, Sweden) density gradient. CD14^+ monocytes were isolated from PBMCs by positive selection using anti-CD14 beads (Miltenyi Biotech., Auburn, Calif.), following the manufacturer's instructions. To generate DCs, CD14^+ cells were cultured in RPMI 1640 medium supplemented with 2 mM L-glutamine (GIBCO-BRL Life Technologies, Grand Island, N.Y.), 50 μM 2-mercaptoethanol (Sigma, St. Louis, Mo.), 10 mM HEPES (GIBCO-BRL), penicillin (100 U/ml), streptomycin (100 μg/ml) (GIBCO-BRL), and 5% human AB serum (Gemini Bio-Products, Woodland, Calif.). Cultures were maintained for 7 days in 6-well trays (3×10^6 cells/well) supplemented with 1000 U GM-CSF per ml (Immunex, Seattle, Wash.) and 200 U IL-4 per ml (R&D Systems, Minneapolis, Minn.) at days 0, 2, 4 and 6.
(§1) Recombinant HMGB1-B box domain (HMGB1-Bx) was expressed in Escherichia coli and purified as described by Li, et al. (Mol. Med. 9:37-45; J. Immunol. Methods 289:211-223 (2004)). Purified HMGB1-Bx contained trace amounts of LPS (19 pg LPS/μg HMGB1-Bx) as measured by the chromogenic Limulus amebocyte lysate assay (BioWhittacker Inc, Walkersville, Md.). All experiments using HMGB1-Bx, as well as the HMGB1 peptides, were performed in the presence of polymyxin B (200 U/ml) to neutralize the amount of contaminating LPS in the HMGB1-Bx and peptide preparations. We have previously shown that the DC stimulatory capacity of HMGB1-Bx requires an intact tertiary structure and is not due to contaminating amounts of LPS, as trypsinization abolished HMGB1-Bx activity (Messmer, et al., J. Immunol. 173: 307-313 (2004); the entire teachings of which are incorporated herein by reference).
(§2) Secreted cytokine/chemokine levels were measured by ELISA (Pierce Boston Technology Center, SearchLight™ Proteome Arrays Multiplex Sample Testing Services, Woburn, Mass.) 48 h after addition of the various peptides. Polymyxin B (200 U/ml) was added to all cultures, except those containing LPS, before the stimuli were added. Immature monocyte-derived human dendritic cells (DCs) and immature bone-marrow derived murine dendritic cells (BM-DCs) were cultured either in the presence of HMGB1 peptides (200 μg/ml), whose sequences map to different regions of the HMGB1 protein (see Table 1), the entire HMGB1 B-box domain (HMGB1-Bx) (50 μg/ml), or LPS (100 ng/ml). Untreated cells (medium) were tested as a control. Each peptide was named according to the corresponding position of its first amino acid within the full-length HMGB1 sequence. All peptides were N-terminally biotinylated except “Hp-106 (non bio)”.

[2] = system: murine bone marrow-derived dendritic cells (BM-DCs); assay: Cytokine/chemokine secretion by murine bone marrow-derived dendritic cells (ELISA); format: cell-based, mouse; parameters: key to TNFα secretion / IL-18 secretion / IL-8 secretion / IL-10 secretion / IL-2 secretion / IL-1β secretion / IL-5 secretion / IL-6 secretion / IL-12 secretion: “+” indicates an increase; “−” indicates no change relative to untreated cells (medium); conditions: for secretion of IL-12 (p70): FIGS. 2B, 2H; for secretion of IL-1β: FIG. 2A; for secretion of IL-2: FIG. 2C; for secretion of IL-5: FIG. 2E
Procedure: Bone marrow-derived DCs (BM-DCs) were generated using modifications of the original method described by Inaba, et al. (J. Exp. Med. 1 76:1693-1702 (1992)). In brief, bone marrow suspensions were incubated with red cell lysis buffer (PUREGENE™ RBC Lysis Solution, Gentra Systems, Minneapolis, Minn.) to remove red blood cells. After washing in media, lymphocytes and Ia-positive cells were killed with a cocktail of monoclonal antibodies (mAbs) and rabbit complement for 60 min at 37° C. The mAbs that were used were GK1.5 anti-CD4, TIB211 anti-CD8, TIB 120 anti-Ia, and TIB 146 anti B220 (these mAbs were kindly provided by Dr. Ralph Steinman). The cells were subsequently cultured in media containing 5% FCS and 10 ng/ml recombinant mouse GM-CSF (R&D Systems, Minneapolis, Minn.) for 7 days. For some experiments, the cells were further purified at day 7 using CD11c^+-microbeads (Miltenyi Biotech., Auburn, Calif.), according to the manufacturer's instructions.
as §1, §2

[3] = system: allogeneic T cells co-cultured with BM-DCs; assay: Functional maturation of BM-DCs: allogeneic T cell proliferation in mixed lymphocyte reaction (3H-thymidine); format: cell-based, mouse; conditions: BM-DCs from C57/BL6 mice exposed 48 h; peptide 200 μg/ml, HMGB1-Bx 50 μg/ml; DC:T cell ratio 1:120, 5 days; FIG. 4A
Procedure: Immature BM-DCs that were generated from C57/BL6 mice (FIG. 4A) or Balb/c mice (FIG. 4B) were incubated for 48 h with either HMGB1-Bx (50 μg/ml), a particular HMGB1 peptide (200 μg/ml), LPS (100 ng/ml) or were left untreated (medium). T cells were isolated by negative selection using the mouse SpinSep antibody cocktail from StemCell Technologies (Vancouver, Calif.), according to the manufacturer's instructions. The cell purity of the isolated T cells was routinely ˜99% pure. In order to assess levels of T cell activation and proliferation, cells were plated at 10^5 cells per well in a round-bottomed 96-well tray at a DC:T cell ratio of 1:120 for 5 days in the medium described above. The microcultures were pulsed with (^3H)-thymidine ([…]) for the final 8 h of culture. Cell cultures were harvested onto glass fiber filters with an automated multiple sample harvester and the amount of isotope incorporation was determined by liquid scintillation β-emission. Responses are reported as mean cpm of thymidine incorporation by triplicate cultures (±SEM).

immature BM-DCs = assay: Phenotypic maturation of murine BM-DCs: surface maturation markers by FACS; format: cell-based, mouse; conditions: CD11c+ gated, mean fluorescence intensity, peptide 200 μg/ml, HMGB1-Bx 50 μg/ml
Procedure: In order to determine whether HMGB1-Bx and/or particular HMGB1 peptides could induce phenotypic maturation of murine DCs, immature BM-DCs were exposed to either HMGB1-Bx, a particular HMGB1 peptide, or LPS (FIG. 3). Fluorescence activated cell sorting (FACS) analysis was performed on immature DCs that were cultured in the presence of either HMGB1-Bx (50 μg/ml), an HMGB1 peptide (200 μg/ml), or LPS (100 ng/ml). Untreated DCs (medium) were also tested as a control. DCs were gated on CD11c^+ cells and analyzed for expression of specific maturation markers (e.g., CD86, MHC-II, CD40) by surface membrane immunofluorescence. In particular, 1×10^4 DCs were reacted for at least 20 min at 4° C. in […] of PBS/5% FCS/0.1% sodium azide (staining buffer) with fluorescein isothiocyanate (FITC)-conjugated IgG monoclonal antibodies (mAbs) that are specific for CD86, CD40 or MHC-II (eBioscience). Cells were then washed 4 times with staining buffer, fixed in 10% formaldehyde in PBS (pH 7.2-7.4) and examined by flow cytometry using a FACScan (BD Biosciences). In all experiments, isotype controls were included using a FITC-conjugated irrelevant mAb of the same Ig class. Results are depicted as mean fluorescence intensity (MFI).

[4] = murine BM-DCs, peptides 200 μg/ml, HMGB1-Bx 50 μg/ml, 48 h
[5] = MURINE DC, ELISA 48 h after exposure, peptides 200 μg/ml, HMGB1-Bx 50 μg/ml, relative to untreated cells

Sequence: CSEYRPKIKGEHPGLSIG [Hp-106 (non bio), Hp-106 peptide that was not biotinylated at its N-terminus]
- secretion of IL-6 by DCs [1]: failed to stimulate IL-6 secretion
- secretion of IL-12 (p70) [2, 4]: did not enhance IL-12 secretion

Sequence: DPNAPKRPPSAFFLFCSE (Biotin-DPNAPKRPPSAFFLFCSE; listed as Homo sapiens) [Hp-91]
- IL-6 secretion [1]: +
- IL-8 secretion [1]: −
- IL-10 secretion [1]: −
- IL-12 secretion [1]: +
- IL-18 secretion [1]: +
- TNFα secretion [1]: +
- cytokine secretion by human DCs [1]: induced cytokine secretion by human DCs
- secretion of IL-12 (p70) [1]: induced secretion
- secretion of TNF-α [1]: induced secretion
- secretion of IL-18 [1]: induced secretion
- secretion of IL-8 [1]: did not induce secretion
- secretion of IL-6 by DCs [1]: enhanced IL-6 secretion
- IL-1β secretion [2, 5]: +
- IL-2 secretion [2, 5]: +
- IL-5 secretion [2, 5]: +
- IL-6 secretion [2, 5]: −
- IL-8 secretion [2, 5]: −
- IL-10 secretion [2, 5]: −
- IL-12 secretion [2, 5]: +
- IL-18 secretion [2, 5]: −
- TNFα secretion [2, 5]: −
- cytokine secretion by murine BM-DCs ([2]; murine BM-DCs): induced cytokine secretion by murine BM-DCs
- secretion of IL-1β [2, 4]: increased production
- secretion of IL-2 [2, 4]: increased production
- secretion of IL-8 ([2]; murine BM-DCs, FIG. 2D, peptides 200 μg/ml, HMGB1-Bx 50 μg/ml, 48 h): not
- secretion of IL-5 [2, 4]: increased production
- secretion of IL-18 ([2]; murine BM-DCs, FIG. 2F, peptides 200 μg/ml, HMGB1-Bx 50 μg/ml, 48 h): not
- secretion of TNF-α ([2]; murine BM-DCs, FIG. 2G, peptides 200 μg/ml, HMGB1-Bx 50 μg/ml, 48 h): not

Sequence: HPDASVNFSEFSKKCSER (Biotin-HPDASVNFSEFSKKCSER; listed as Homo sapiens) [Hp-31]
- IL-6 secretion [1]: +
- IL-8 secretion [1]: −
- IL-10 secretion [1]: −
- IL-12 secretion [1]: +
- IL-18 secretion [1]: +
- TNFα secretion [1]: +
- cytokine secretion by human DCs [1]: induced cytokine secretion by human DCs
- secretion of IL-12 (p70) [1]: induced secretion
- secretion of TNF-α [1]: induced secretion
- secretion of IL-18 [1]: induced secretion
- secretion of IL-8 [1]: did not induce secretion
- secretion of IL-6 by DCs [1]: induced secretion
- IL-1β secretion [2, 5]: +
- IL-2 secretion [2, 5]: +
- IL-5 secretion [2, 5]: +
- IL-6 secretion [2, 5]: −
- IL-10 secretion [2, 5]: −
- IL-12 secretion [2, 5]: +
- cytokine secretion by murine BM-DCs ([2]; murine BM-DCs): induced cytokine secretion by murine BM-DCs
- secretion of IL-6 ([2]; murine BM-DCs): not
- secretion of IL-10 ([2]; murine BM-DCs): not
- secretion of IL-1β [2, 4]: enhanced the production
- secretion of IL-2 [2, 4]: enhanced the production
- secretion of IL-5 [2, 4]: enhanced the production
- secretion of IL-12 (p70) [2, 4]: enhanced the production

Sequence: SERWKTMSAKEKGKFEDM (Biotin-SERWKTMSAKEKGKFEDM; listed as Homo sapiens) [Hp-46]
- secretion of IL-6 by DCs [1]: did not induce IL-6 secretion
- proliferation of resting allogeneic T cells (3H thymidine incorporation) [3]: did not show enhanced T cell stimulatory activity

Sequence: SIGDVAKKLGEMWNNTAA (Biotin-SIGDVAKKLGEMWNNTAA; listed as Homo sapiens) [Hp-121, control peptide]
- CD86 expression on the surface of BM-DCs (immature BM-DCs; FIG. 3A): No altered expression
- MHC-II expression on the surface of BM-DCs (immature BM-DCs; FIG. 3B): No altered expression
- CD40 expression on the surface of BM-DCs (immature BM-DCs; FIG. 3C): No altered expression
- proliferation of resting allogeneic T cells (3H thymidine incorporation) [3]: did not show enhanced T cell stimulatory activity
